Source: US8633314B2, “Forms of a multicyclic compound” (Cephalon, Inc., priority 2009, dated 2014)
One block for each compound: values may come before it.

Columns and labels:
Assay type in all cases: physicochemical
[1] = Solid state stress stability (storage; XRPD and stability-indicating HPLC)
Experimental: Typically 10 μL aliquots of the sample solutions were diluted to 1 mL with acetonitrile and the assay concentrations were determined from an average of duplicate injections using the following HPLC method. The purity and impurity analyses are done using conventional HPLC.
Crystallization studies were performed to investigate polymorphism in 48 different solvents. Solvents were selected on the basis of acceptability (ICH Class 3 and 2) and to give a range of dielectric constants, dipole moments and functional groups. Two starting materials were selected: Form A0 and Lot 7 (a mixture of Form A0, Form HC0 and Form HD0). When possible, full characterization was performed on the new forms that were generated during the polymorphism screening of Compound I. This characterization consisted of: XRPD, thermal analysis, DVS, storage at 40° C./75% RH and purity.
Stress stability studies were performed to get a timely impression of the influence of temperature and humidity on form stability. A stability-indicating HPLC assay method was developed for quantitation of Compound I and its major degradation product, 7-methoxy-1,2,3,11-tetrahydro-5,11-diaza-benzo[a]trindene-4,6-dione, previously referred to as “Compound E”.

[2] = Dynamic vapor sorption (DVS)
Experimental: Gravimetric vapor sorption experiments were carried out using the DVS-HT instrument (Surface Measurement Systems, London, UK). This instrument measures the uptake and loss of vapor gravimetrically using a recording ultra-microbalance with a mass resolution of ±0.1 μg. The vapor partial pressure (±1.0%) around the sample was controlled by mixing saturated and dry carrier gas streams using electronic mass flow controllers. The desired temperature was maintained at ±0.1° C.
The samples (10-25 mg) were placed into the DVS-HT instrument at the desired temperature. Two types of dynamic vapor sorption experiments were performed: • 1. The sample was initially dried in stream of dry air (<0.1% relative humidity (RH)) for 20 hours to establish a dry mass and exposed to two 0-90% RH cycles (in 10% RH increments). • 2. The sample was exposed at 90% RH for 20 hours and exposed to two 90-0% RH cycles (in 10% RH increments). Infrared Spectrometry (FTIR)

[3] = Mechanical stress: grinding by mortar and pestle, milling by Wig-L-Bug
Experimental: Approximately 100 mg of Compound I was ground at different times ranging from 5 to 27 min in an agate mortar. Samples were removed for XRPD and thermal analysis. The grinding process was stopped every 5 minutes to scrape and remix powder cakes at the curvature end of the jars to ensure homogenous grinding.
A Wig-l-Bug® (Piketech, USA) was used to grind Compound I Form A0, HA0 and HB0 (mixture of Forms HC0 and HD0). Each sample (50 mg) was ground for periods of 5 and 10 minutes or until no change was observed. Each milling was carried out in a 2.82 cm^3 container using 0.9 g stainless steel ball ([…]). The vial is swung through a 6.5° arc at 3200 rpm, causing the ball to strike the end of the vial at over 100 Hz.

[4] = Variable temperature X-ray powder diffraction (VT-XRPD)
Experimental: Variable temperature studies were performed under a nitrogen atmosphere with an Anton Paar TTK450 temperature chamber under computer control through an Anton Paar TCU100 temperature control unit. Two measurement schemes were used, restricted and continuous. In the restricted mode, measurements were made, only after the TK450 chamber reached the requested temperature. In the continuous mode, the sample was heated at 10° C./minute and fast scans were measured as the temperature changed. After the requested temperature was reached, the sample was cooled at 30 or 35° C./minute and a slower scan measured 25° C.

[5] = Well plate crystallization with added water (forms found)
Experimental: B. Plates containing 10 volumes of Compound I (40 mg of Lot 7 in 400 μL) were heated from 20° C. to an initial temperature of 80° C. at a rate of 4.8° C./min and after 30 minutes, cooled at a slow (0.28° C./min), or fast (10° C./min) rate to a final temperature of 5° C. and kept at that temperature for 18 hours. The crystallization experiments were carried out in glass vial (4 mL) well plates, and solid material was isolated by filtration. The solid was dried at 57° C. for 10 hours.

[6] = Relative stability of slurries in water (XRPD of residual solid); conditions: for form after slurrying in water: slurried overnight in 2 ml water, all conditions investigated; for Forms Found (XRPD of residual solid): water
Experimental: Two ml of water was added to a few milligrams of Compound I forms. The samples were slurried overnight. A small sample of solid was removed and analyzed by XRPD. […] The hydrate form appears to be more thermodynamically stable than Form A0 between 5 and 45° C.

[7] = Regular DVS (0 to 90% RH), listed as HC0
[8] = Irregular DVS (90 to 0% RH), listed as A0
[9] = Regular DVS (0 to 90% RH), listed as A0

SMILES: COc1cccc2[nH]c3c4c(c5c(c3c12)C(=O)N(CN1CCN(C)CC1)C5=O)CCC4 [Compound I, 4,5,6,7-tetrahydro-11-methoxy-2-[(4-methyl-1-piperazinyl)methyl]-1H-cyclopenta[a]pyrrolo[3,4-c]carbazole-1,3(2H)-dione]
chemical degradation ([1]; 40° C. and 75% RH): not observed | chemical degradation ([1]; exposed to 110° C.): observed

SMILES: COc1cccc2[nH]c3c4c(c5c(c3c12)C(=O)N(CN1CCN(C)CC1)C5=O)CCC4 [Form A0, 4,5,6,7-tetrahydro-11-methoxy-2-[(4-methyl-1-piperazinyl)methyl]-1H-cyclopenta[a]pyrrolo[3,4-c]carbazole-1,3(2H)-dione]
solid-solid transformation (VT-XRPD) ([4]; 20° C. to 250° C.): No solid-solid transformation takes place | change in XRPD pattern after heating ([4]; heated to 220° C., then exposure to ambient conditions): no significant change | form produced on crystallization from aqueous media [5]: a mixture of Forms HC0+HD0 is produced | Forms Found ([5]; methyl acetate, 0.175 volumes of water): HC0, HD0 | Forms Found ([5]; methyl acetate, 0.25 volumes of water): HC0, HD0 | Forms Found ([5]; methyl acetate, 1 volume of water): HC0, HD0 | Forms Found ([5]; methyl acetate, 1.5 volumes of water): HC0, HD0 | XRPD crystallinity after milling ([3]; five minutes, Wig-l-Bug): crystallinity had been significantly reduced | XRPD crystallinity after grinding ([3]; twenty minutes, mortar and pestle): crystallinity had been significantly reduced | Chemical Stability (HPLC (post 4 weeks at 40° C./75% RH (Area %))) ([1]; 40° C./75% RH): 99.0 Area % | forms arising on storage (water uptake) ([1]; 40° C. and 75% RH, after 3 months): hydrate Forms HC0 and HD0 | HPLC % Compound I ([1]; 40° C./75% RH, 5 days): 99.2% Compound I, | HPLC % Compound I ([1]; 40° C./75% RH, 16 days): 99.2% Compound I, | HPLC % Compound I ([1]; 40° C./75% RH, 29 days): 99.2% Compound I, | HPLC % Compound I ([1]; 40° C./75% RH, 141 days): 99.0% Compound I, | XRPD (form found) ([1]; 40° C./75% RH, 141 days): A0, HC0, HD0 | HPLC % Compound I ([1]; 60° C./0% RH, 7 days): 99.3% Compound I, | HPLC % Compound I ([1]; 60° C./0% RH, 14 days): 99.1% Compound I, | HPLC % Compound I ([1]; 60° C./0% RH, 28 days): 99.1% Compound I, | HPLC % Compound I ([1]; 110° C., 7 days): 98.7% Compound I, | HPLC % Compound I ([1]; 110° C., 14 days): 95.6% Compound I, | HPLC % Compound I ([1]; 110° C., 28 days): 93.4% Compound I, | DVS % increase in mass at 90% RH [2]: 0.1% | Total uptake at 90% RH ([2]; Irregular DVS (90 to 0% RH)): 0.5% | changes by XRPD re-analysis after DVS ([2]; Irregular DVS (90 to 0% RH)): No significant changes | total increase in mass (reversible isotherm) ([2]; Irregular DVS (90 to 0% RH)): < 0.6% | At 75% RH uptake [2, 8]: 0.15% | Total uptake at 90% RH [2, 8]: 0.5% | At 75% RH uptake ([2]; Regular DVS (0 to 90% RH)): less than 0.08% | Total uptake at 90% RH ([2]; Regular DVS (0 to 90% RH)): approximately 0.1% | changes by XRPD re-analysis after DVS ([2]; Regular DVS (0 to 90% RH)): No significant changes | hygroscopicity ([2]; Regular DVS (0 to 90% RH), adsorption and desorption curves overlap): not hygroscopic | At 75% RH uptake [2, 9]: 0.08% | Total uptake at 90% RH [2, 9]: 0.1% | form after slurrying in water [6]: converted to the hydrate forms (mixture of Forms HC0 and HD0) | Forms Found (XRPD of residual solid) ([6]; 5° C., 1 day): HC0, HD0 | Forms Found (XRPD of residual solid) ([6]; 5° C., 4 days): HC0, HD0 | Forms Found (XRPD of residual solid) ([6]; 45° C., 1 day): HA0, HC0

SMILES: COc1cccc2[nH]c3c4c(c5c(c3c12)C(=O)N(CN1CCN(C)CC1)C5=O)CCC4 [Form HA0, 4,5,6,7-tetrahydro-11-methoxy-2-[(4-methyl-1-piperazinyl)methyl]-1H-cyclopenta[a]pyrrolo[3,4-c]carbazole-1,3(2H)-dione]
form produced on crystallization from aqueous media [5]: a mixture of Forms HC0+HD0 is produced | Forms Found ([5]; solvent not given, 0.175 volumes of water): HC0, HD0 | Chemical Stability (HPLC (post 4 weeks at 40° C./75% RH (Area %))) ([1]; 40° C./75% RH): 99.0 Area % | HPLC % Compound I ([1]; 40° C./75% RH, 0 days): 99.6% Compound I, | XRPD (form found) ([1]; 40° C./75% RH, 0 days): HA0 | HPLC % Compound I ([1]; 40° C./75% RH, 7 days): 99.5% Compound I, | XRPD (form found) ([1]; 40° C./75% RH, 7 days): HA0 | HPLC % Compound I ([1]; 40° C./75% RH, 26 days): 99.0% Compound I, | XRPD (form found) ([1]; 40° C./75% RH, 26 days): HA0 | XRPD post DVS analysis [2]: No significant changes | DVS % increase in mass at 90% RH [2]: 1.5% | weight decrease in DVS isotherm ([2]; between 20-30% RH): 1.25% | second change in mass ([2]; second desorption phase): ~0.4% | form after slurrying in water [6]: converted to the hydrate forms (mixture of Forms HC0 and HD0)

SMILES: COc1cccc2[nH]c3c4c(c5c(c3c12)C(=O)N(CN1CCN(C)CC1)C5=O)CCC4 [Form B0, 4,5,6,7-tetrahydro-11-methoxy-2-[(4-methyl-1-piperazinyl)methyl]-1H-cyclopenta[a]pyrrolo[3,4-c]carbazole-1,3(2H)-dione]
solid-solid transformation (VT-XRPD) ([4]; 150° C. to 200° C., after the dehydration): no solid-solid transformation takes place

Results, then the compound that gave them:

Chemical Stability (HPLC (post 4 weeks at 40° C./75% RH (Area %))) ([1]; 40° C./75% RH): 99.0 Area % | HPLC % Compound I ([1]; 40° C./75% RH, 0 days): 92.6% Compound I, | XRPD (form found) ([1]; 40° C./75% RH, 0 days): HC0 | HPLC % Compound I ([1]; 40° C./75% RH, 28 days): 93.3% Compound I, | HPLC % others ([1]; 40° C./75% RH, 28 days): 0.2% others | XRPD (form found) ([1]; 40° C./75% RH, 28 days): HC0 | DVS % increase in mass at 90% RH [2]: 0.44% | At 75% RH uptake ([2]; Irregular DVS (90 to 0% RH)): 0.3% | Total uptake at 90% RH ([2]; Irregular DVS (90 to 0% RH)): 0.4% | changes by XRPD re-analysis after DVS ([2]; Irregular DVS (90 to 0% RH)): No significant changes | Total uptake at 90% RH ([2]; Regular DVS (0 to 90% RH)): 0.4% | changes by XRPD re-analysis after DVS ([2]; Regular DVS (0 to 90% RH)): No significant changes | At 75% RH uptake [2, 7]: 0.3% | Total uptake at 90% RH [2, 7]: 0.4%
SMILES: COc1cccc2[nH]c3c4c(c5c(c3c12)C(=O)N(CN1CCN(C)CC1)C5=O)CCC4 [Form HC0, 4,5,6,7-tetrahydro-11-methoxy-2-[(4-methyl-1-piperazinyl)methyl]-1H-cyclopenta[a]pyrrolo[3,4-c]carbazole-1,3(2H)-dione]

factor of reduction in intensity of XRPD peak at 7.6° (2θ) ([3]; three five-minute grinding intervals): approximately 30
SMILES: COc1cccc2[nH]c3c4c(c5c(c3c12)C(=O)N(CN1CCN(C)CC1)C5=O)CCC4 [Form HB0]

HPLC % Compound I ([1]; 40° C./75% RH, 9 days): 99.4% Compound I, | XRPD (form found) ([1]; 40° C./75% RH, 9 days): transformed into monohydrate Form HC0 | XRPD (form found) ([1]; 40° C./75% RH, 9 days, listed as S40): HC0 | HPLC % Compound I ([1]; 40° C./75% RH, 17 days): 99.4% Compound I, | XRPD (form found) ([1]; 40° C./75% RH, 17 days): HC0 | HPLC % Compound I ([1]; 40° C./75% RH, 31 days): 99.4% Compound I, | XRPD (form found) ([1]; 40° C./75% RH, 31 days): HC0 | HPLC % Compound I ([1]; 40° C./75% RH, 62 days): 99.2% Compound I, | XRPD (form found) ([1]; 40° C./75% RH, 62 days): remained in this state | XRPD (form found) ([1]; 40° C./75% RH, 62 days, listed as S40): HC0
SMILES: COc1cccc2[nH]c3c4c(c5c(c3c12)C(=O)N(CN1CCN(C)CC1)C5=O)CCC4 [Form S40]
